Reference: PMC12118337, “Development of a Peptide Inhibitor Targeting the C‐SH2 Domain of the SHP2 Phosphatase” (Chembiochem, 2025)
Non-standard residues stand in square brackets, D forms with d. Residues, ends and D or L forms follow the SMILES beside them. pY = N[C@@H](Cc1ccc(OP(=O)(O)O)cc1)C(=O)O

Assays:
[1] = target: T1, full‐length SHP2 (Homo sapiens, UniProt Q06124); test: DiFMUP phosphatase assay, peptide activation (no activator); type: biochemical; details: 0.5 nM full-length SHP2, no tandem activator, peptide 0.096 nM – 51.2 µM
T1 construct: 1–525) proteins were prepared; His-SUMO3 (pETM11-SUMO3 vector) (N, cleaved yes); made in house; host or cells: E. coli BL21(DE3)
T1 sequence (Q06124 1-525): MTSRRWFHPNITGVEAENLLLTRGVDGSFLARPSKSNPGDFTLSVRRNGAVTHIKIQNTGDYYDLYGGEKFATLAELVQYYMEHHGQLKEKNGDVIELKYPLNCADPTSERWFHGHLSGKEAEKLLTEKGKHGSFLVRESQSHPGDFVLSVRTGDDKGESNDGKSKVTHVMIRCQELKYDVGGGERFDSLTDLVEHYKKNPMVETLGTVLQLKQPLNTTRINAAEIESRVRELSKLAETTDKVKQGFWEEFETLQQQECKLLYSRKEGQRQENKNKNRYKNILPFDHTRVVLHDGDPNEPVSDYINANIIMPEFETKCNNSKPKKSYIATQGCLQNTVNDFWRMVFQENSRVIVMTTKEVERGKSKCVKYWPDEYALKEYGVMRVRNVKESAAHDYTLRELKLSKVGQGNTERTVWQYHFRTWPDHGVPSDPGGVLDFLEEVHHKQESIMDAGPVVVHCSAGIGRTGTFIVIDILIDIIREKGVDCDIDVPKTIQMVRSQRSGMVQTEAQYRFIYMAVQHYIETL
Procedure: (§1) 6. DiFMUP phosphatase assays
SHP2 dephosphorylation of the fluorogenic substrate 6,8-difluoro-4-methylumbiliferyl phosphate (DiFMUP) was measured to evaluate the effect of acetylated peptides on SHP2 activity. Final concentrations of 0.5 nM full-length SHP2, 200 µM DiFMUP (Invitrogen) and 26 nM bisphosphorylated tandem ITIM-[dPEG4]2-ITSM (CASLO ApS) were used, unless stated otherwise, per well in 96-well plates (OptiPlate-96 F Black; PerkinElmer). For peptide activation assays, each well contained 60 µL of reaction buffer (50 mM HEPES pH 7.6, 150 mM NaCl, 1 mM EDTA, 0.05% Tween 20, freshly added 5 mM DTT), 10 µL of SHP2 and 20 µL of the test peptide (0.096 nM – 51.2 µM final concentration). For peptide inhibition assays in the presence of a SHP2 activator, each well contained 40 µL of reaction buffer (50 mM HEPES pH 7.6, 150 mM NaCl, 1 mM EDTA, 0.05% Tween 20, freshly added 5 mM DTT), 10 µL of SHP2 and 40 µL of previously mixed bisphosphorylated tandem ITIM-[dPEG4]2-ITSM activator and test peptide (0.096 nM – 51.2 µM or 0.376 nM – 200 µM final concentration). […] The fluorescence was immediately measured on a Synergy H1 Microplate Reader (BioTek) with the excitation and emission monitored at 358 nm and 452 nm, respectively, over 30 minutes. Data were analysed in Excel 2016 by subtracting background values from emission values and calculating the slope of the emission profiles. […]

[2] = target: T2, SHP2 N‐SH2 domain (Homo sapiens, UniProt Q06124); test: Isothermal titration calorimetry (ITC), SHP2 N-SH2 domain; type: binding; details: 20 mM Tris-HCl pH 7.6, 150 mM NaCl, 1:1 stoichiometry assumed, one experiment, read-out: K D, N‐SH2 (ITC)
T2 construct: SHP2 N-SH2 domain (1–105), C-SH2 domain (106–220), PTP domain (224–541) and; His6 (pETM22 vector) (N, cleaved yes); made in house; host or cells: E. coli BL21(DE3)
T2 sequence (Q06124 1-105): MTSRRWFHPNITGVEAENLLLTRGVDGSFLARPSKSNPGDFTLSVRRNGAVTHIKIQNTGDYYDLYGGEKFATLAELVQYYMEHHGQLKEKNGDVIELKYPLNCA
Procedure: (§2) concentration of 100 nM in a final volume of 200 µL. For baseline subtraction, each peptide was added to FP buffer, instead of protein, with a final peptide concentration of 100 nM in a final volume of 200 µL. Samples were mixed gently then 3 x 60 µL of each sample was transferred into triplicate wells in a 96-well plate (OptiPlate-96 F Black; PerkinElmer). The FP was immediately measured on a Synergy H1 Microplate Reader (BioTek) with the excitation and emission monitored at 485 nm and 528 nm, respectively, over 30 minutes. FP values were automatically calculated by the Gen5 3.03 (BioTek) software associated with the microplate reader. Data were analysed in Excel 2016 by subtracting baseline values from FP values at 10 minutes. Data were then further analysed in GraphPad Prism 6 by plotting the baseline subtracted FP values against the protein concentration and fitting the data to a variable slope model of non-linear regression to obtain the KD values. Data are from three independent experiments, each performed in technical triplicates.
(§3) 5. Isothermal titration calorimetry
(§4) Isothermal titration calorimetry (ITC) was used to measure the binding of the Ac-ITSM(pTyr) to the SHP2 C-SH2 or N-SH2 domain. […]

[3] = target: T3, SHP2 C‐SH2 domain (Homo sapiens, UniProt Q06124); test: Isothermal titration calorimetry (ITC), SHP2 C-SH2 domain; type: binding; details: 20 mM Tris-HCl pH 7.6, 150 mM NaCl, 1:1 stoichiometry assumed, one experiment, read-out: K D, C‐SH2 (ITC)
T3 construct: SHP2 N-SH2 domain (1–105), C-SH2 domain (106–220), PTP domain (224–541) and; His6 (pETM22 vector) (N, cleaved yes); made in house; host or cells: E. coli BL21(DE3)
T3 sequence (Q06124 106-220): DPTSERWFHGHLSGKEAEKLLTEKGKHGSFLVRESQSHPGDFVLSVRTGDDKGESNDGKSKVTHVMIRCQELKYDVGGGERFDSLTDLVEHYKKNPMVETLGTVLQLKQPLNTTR
Procedure: as §2, §3, §4

[4] = system: full‐length SHP2 or isolated PTP domain; test: EnzChek phosphate assay (peptide as substrate); type: biochemical; details: 50 nM full-length SHP2 or PTP domain, peptide 25–800 µM, absorbance 360 nm, three independent experiments
Procedure: 7. EnzChek phosphate assays
The EnzChek Phosphate Assay Kit (Thermo Fisher Scientific), which measures the release of inorganic phosphate generated from an enzymatic reaction, was used to evaluate Ac-ITSM(pTyr) and acetylated peptide 21 as potential substrates of SHP2. A reaction mixture consisting of 43 µL of dH2O, 0.5 µL of 1 M DTT ([…]), 5 µL of 20X reaction buffer, 20 µL of 2-amino-6-mercapto-7-methylpurine riboside (MESG) solution, 1.5 µL of purine nucleoside phosphorylase (PNP) solution and 10 µL of 0.5 µM full-length SHP2 or PTP domain (50 nM final concentration) was added to each well in a 96-well plate (SpectraPlate-96 MB; PerkinElmer). Samples were incubated for 10 minutes at room temperature and then 20 µL of Ac-ITSM(pTyr) or peptide 21 (final concentrations: 800 µM, 400 µM, 200 µM, 100 µM, 25 µM) was added to give a final volume of 100 µL per well. The absorbance was immediately measured at 360 nm on a Synergy H1 Microplate Reader (BioTek).
Data were analysed in GraphPad Prism 6 by plotting the absorbance against the peptide concentration. Data are from three independent experiments, each performed in technical triplicates.

[5] = target: T1, full‐length SHP2; test: DiFMUP phosphatase assay, peptide inhibition in the presence of ITIM-[dPEG4]2-ITSM activator; type: biochemical; details: 0.5 nM full-length SHP2 activated with 26 nM bisphosphorylated ITIM-[dPEG4]2-ITSM, 200 µM DiFMUP, pH 7.6, 20 min pre-incubation at room temperature; two or three independent experiments in technical triplicates; read-out: IC50 ± SEM (DiFMUP activity assay)
Procedure: as §1
SHP2 dephosphorylation of the fluorogenic substrate 6,8-difluoro-4-methylumbiliferyl phosphate (DiFMUP) was measured to evaluate the effect of acetylated peptides on SHP2 activity. Final concentrations of 0.5 nM full-length SHP2, 200 µM DiFMUP (Invitrogen) and 26 nM bisphosphorylated tandem ITIM-[dPEG4]2-ITSM (CASLO ApS) were used, unless stated otherwise, per well in 96-well plates (OptiPlate-96 F Black; PerkinElmer). For peptide activation assays, each well contained 60 µL of reaction buffer (50 mM HEPES pH 7.6, 150 mM NaCl, 1 mM EDTA, 0.05% Tween 20, freshly added 5 mM DTT), 10 µL of SHP2 and 20 µL of the test peptide (0.096 nM – 51.2 µM final concentration). For peptide inhibition assays in the presence of a SHP2 activator, each well contained 40 µL of reaction buffer (50 mM HEPES pH 7.6, 150 mM NaCl, 1 mM EDTA, 0.05% Tween 20, freshly added 5 mM DTT), 10 µL of SHP2 and 40 µL of previously mixed bisphosphorylated tandem ITIM-[dPEG4]2-ITSM activator and test peptide (0.096 nM – 51.2 µM or 0.376 nM – 200 µM final concentration). To obtain the maximal activity, 10 µL of SHP2 and 20 µL of bisphosphorylated tandem ITIM-[dPEG4]2-ITSM activator was added to 60 µL of buffer. Samples were incubated for 20 minutes at room temperature and then 10 µL of DiFMUP was added to each sample, to give a final volume of 100 µL per well. For background subtraction, 10 µL of DiFMUP was added to 80 µL of buffer. The fluorescence was immediately measured on a Synergy H1 Microplate Reader (BioTek) with the excitation and emission monitored at 358 nm and 452 nm, respectively, over 30 minutes. Data were analysed in Excel 2016 by subtracting background values from emission values and calculating the slope of the emission profiles. Data were then further analysed in GraphPad Prism 6 by either: 1) plotting the slope against the peptide concentration and fitting the data to a variable slope model of non-linear regression; or 2) normalising the data to the maximal activity (SHP2 in the presence of ITIM-[dPEG4]2-ITSM; set to 100% activity) to obtain the % activity, plotting the % activity against the peptide concentration and fitting the data to a variable slope model of non-linear regression to obtain the IC50 values. Data are from two or three independent experiments, each performed in […]

| IC50 [5] [nM] | SMILES | SHP2 phosphatase activity with peptide alone (activation) [1] | Kd [2] [nM] | Kd [3] [nM] | suitability as substrate of SHP2 (dephosphorylation) [4] |
| --- | --- | --- | --- | --- | --- |
| – | CC[C@H](C)[C@H](NC(=O)[C@@H](NC(=O)[C@H](C)NC(=O)[C@H](Cc1ccc(OP(=O)(O)O)cc1)NC(=O)[C@H](CCC(=O)O)NC(=O)[C@@H](NC(=O)[C@H](CCC(N)=O)NC(=O)[C@H](CCC(=O)O)NC(C)=O)[C@@H](C)O)[C@@H](C)O)C(=O)N[C@H](C(=O)N[C@@H](Cc1ccccc1)C(=O)N1CCC[C@H]1C(N)=O)C(C)C [Ac‐ITSM(pTyr)] (Ac-EQTE[pY]ATIVFP-NH2) | increased | 106 | 58.8 | – |
| 1050 ± 502 | CC[C@H](C)[C@H](NC(=O)[C@@H](NC(=O)[C@H](C)NC(=O)[C@H](Cc1ccc(OP(=O)(O)O)cc1)NC(=O)[C@H](CCC(=O)O)NC(=O)[C@@H](NC(=O)[C@H](CCC(N)=O)NC(C)=O)[C@@H](C)O)[C@@H](C)O)C(=O)N[C@@H](CCCCN)C(=O)N[C@@H](Cc1c[nH]cn1)C(=O)N1CCC[C@H]1C(N)=O [peptide 21] (Ac-QTE[pY]ATIKHP-NH2) | activated SHP2 only minimally at the highest peptide concentration | – | – | not a good SHP2 substrate |
